Assay results published in patent publication US6859735B1, “Computer systems for identifying pathways of drug action” (priority 1998, dated 2005).

Key:
[1] = tested on: pathway originating at calcineurin; assay: Genome-wide correlation of FK506 expression responses against combined Cyc A and methotrexate pathway responses (scaling parameter); assay type: cell-based, Saccharomyces cerevisiae; settings: location of the correlation peak versus scaling parameter applied to FK506 data
Procedure: The gene expression measurements illustrated in FIGS. 8A-C were made as detailed below. To generate the cyclosporin dose response curves, an overnight starter culture of S.cerevisiae strain R563 (Genotype: Mat a ura3-52 lys2-801 ade2-101 trpl-Δ63 his3-Δ200 leu2-Δ1 his3::HIS3) was diluted into 200 ml of YAPD plus 10 mM CaCl2 medium (see, e.g., Ausubel et al., eds., 1996, Current Protocols in Molecular Biology, John Wiley & Sons, Inc., especially ch. 13) to an OD600 of 0.1 and grown at 30° C. with 300 rpm shaking. After a 30 min, cyclosporin A dissolved in ethanol was added to cultures at final concentrations of 60, 30, 15, 6 and 3 μg/ml. Control cultures were treated with the same volume of just ethanol. Growth was monitored by OD600 and cells were harvested at OD600=1.4+/−0.1 by centrifugation for 2 min at ambient temperature in a Sorvall RC5C+centrifuge in a SLA-1500 rotor. […]
In all cases, polyA^+ RNA was isolated by oligo-dT cellulose chromatography using two selections by standard protocols (see, e.g., Sambrook et al. 1989, Molecular Cloning A Laboratory Manual, Cold Spring Harbor Laboratory Press). […] Extent of hybridization was determined by scanning with a prototype multi-frame CCD camera slides produced by Applied Precision, Inc. Images were processed by informatics and imported into the Inpharma database and analyzed using the MatLab data analysis package. […]

[2] = tested on: wild type yeast cells; settings: at 10 micrograms/ml doxycycline, Gari et al. 1997; cited from earlier work
[3] = tested on: yeast; assay: Growth of yeast under methotrexate exposure; assay type: cell-based, Saccharomyces cerevisiae; settings: 100 μm methotrexate titration
Procedure: To generate methotrexate dose response curves, an overnight starter culture of S.cerevisiae strain BY4741 (Genotype: Mat a his3Δ0 leu2D0 ura3Δ0 met15Δ0) was diluted into 200 ml of SC medium (see, e.g., Ausubel et al, ch. 13) to an OD600 of 0.1 and grown at 30° C. with 300 rpm shaking. After 30 min, methotrexate dissolved in water was added to cultures at final concentrations of 200, 100, 50, 25, 6.2, and 3.1 μM. Control cultures were treated with the same volume of water. The rest of the procedure was as above.

[4] = tested on: yeast gene YOL031C; assay: Transcript array gene expression response to graded methotrexate exposure, Hill function fit; assay type: cell-based, Saccharomyces cerevisiae
Source text: In model fitting, the drug and pathway responses are interpolated by approximating each by a single parameterized function. An exemplary model-fitting function appropriate for approximating transcriptional state data is the Hill function, which has adjustable parameters a, u0, and n. [formula]
The adjustable parameters are selected independently for each cellular constituent of the drug response and for each cellular constituent of the pathway response. Preferably, the adjustable parameters are selected so that for each cellular constituent of each pathway response the sum of the squares of the distances of H(pi,l) from Ri,k(pi,l) is minimized, and so that for each cellular constituent of the drug response the sum of the squares of the distances of H(tl) from Dk(tl) is minimized. This preferable parameter adjustment method is known in the art as a least squares fit of H( ) to Ri,k( ) or to Dk( ). Other possible model functions are based on polynomial fitting, for example by various known classes of polynomials.
Model fitting with a Hill function is illustrated with respect to FIGS. 3 and 4. As discussed, FIG. 3 illustrates an example of a pathway perturbed by methotrexate and identified by measurement. This figure illustrates the mRNA expression levels of 30 genes of the yeast S. cerevisiae that, of the approximately 6000 genes in the genome of this yeast, had the largest expression changes in response to six different exposure levels of methotrexate. FIG. 4 illustrates a fit of the pathway response of one of these gene expression levels by a Hill function. […]
In all cases, polyA^+ RNA was isolated by oligo-dT cellulose chromatography using two selections by standard protocols (see, e.g., Sambrook et al. 1989, Molecular Cloning A Laboratory Manual, Cold Spring Harbor Laboratory Press). […] Extent of hybridization was determined by scanning with a prototype multi-frame CCD camera slides produced by Applied Precision, Inc. Images were processed by informatics and imported into the Inpharma database and analyzed using the MatLab data analysis package.

C=CC[C@@H]1/C=C(\C)C[C@H](C)C[C@H](OC)[C@H]2O[C@@](O)(C(=O)C(=O)N3CCCC[C@H]3C(=O)O[C@H](/C(C)=C/[C@@H]3CC[C@@H](O)[C@H](OC)C3)[C@H](C)[C@@H](O)CC1=O)[C@H](C)C[C@@H]2OC [FK506]
approximate relative potency of FK506 and Cyc A [1]: approximately 63

C[C@H]1c2cccc(O)c2C(=O)C2=C(O)[C@]3(O)C(=O)C(C(N)=O)=C(O)[C@@H](N(C)C)[C@@H]3[C@@H](O)[C@@H]21 [doxycycline]
effect on the growth rate [2]: no significant effect

CN(Cc1cnc2nc(N)nc(N)c2n1)c1ccc(C(=O)N[C@@H](CCC(=O)O)C(=O)O)cc1 [methotrexate]
growth defect [3]: 50% | Hill function parameter a ([4]; least squares fit of YOL031C expression response (log expression ratio amplitude)): −0.61 | Hill function parameter n ([4]; least squares fit of YOL031C expression response to six methotrexate exposure levels): 2 | Hill function parameter log10(u0) ([4]; least squares fit of YOL031C expression response, methotrexate exposure levels 3-200 μm): 1.26
